Source: patent publication US20260232767A1, “INTERLEUKIN-23 RECEPTOR ANTAGONIST PEPTIDES FOR USE IN THE TREATMENT OF PSORIASIS” (Janssen Pharmaceutica NV, priority 2023, published 2026)

System: subjects with moderate-to-severe plaque psoriasis
Assay: Hematology and chemistry laboratory values by CTCAE grade
Assay type: in vivo, human
Conditions: through Week 56
Description: The proportion of participants who discontinued study intervention due to one or more AEs was low (n=4). All events were singular in nature with no apparent dose-dependent increase (Table 48 and Table 52). The number of participants with abnormal hematology and chemistry laboratory values with CTCAE toxicity grade≥3 were low through the end of the study (Table 43 through Table 46). There was no apparent dose-dependent increase in laboratory abnormality occurrences.

[1] = Placebo → 100 mg QD after crossover

CC(=O)NCCCC[C@@H]1NC(=O)[C@H](Cc2c[nH]c3c(C)cccc23)NC(=O)[C@H]([C@@H](C)O)NC(=O)[C@H](CC(N)=O)NC(=O)[C@@H](NC(C)=O)C(C)(C)SSC(C)(C)[C@@H](C(=O)N[C@@H](Cc2ccc(OCCN)cc2)C(=O)N[C@@H](Cc2ccc3ccccc3c2)C(=O)NC2(C(=O)N[C@@H](CCC(=O)O)C(=O)N[C@@H](CC(N)=O)C(=O)N[C@@H](Cc3cccnc3)C(=O)N(C)CC(N)=O)CCOCC2)NC1=O [IL-23 receptor antagonist peptide, Ac-[Pen]*-N-T-[W(7-Me)]-[Lys(Ac)]-[Pen]*-Phe[4-(2-aminoethoxy)]-[2-Nal]-[THP]-E-N-[3-Pal]-Sarc-NH2 (*[Pen]-[Pen]* formdisulfidebond)]
WBC (×10^9/L) (increased): subjects with Grade 2 (100 mg QD): 0
WBC (×10^9/L) (increased): subjects with Grade 3 (100 mg QD): 0
WBC (×10^9/L) (increased): subjects with Grade 4 (100 mg QD): 0
WBC (×10^9/L) (increased): subjects with postbaseline maximum toxicity grade >0 (100 mg QD): 0
Hemoglobin (g/L) (decreased): subjects with Grade 3 (Combined Formula (I) regimens): 0
Hemoglobin (g/L) (decreased): subjects with Grade 4 (Combined Formula (I) regimens): 0
Hemoglobin (g/L) (increased): subjects with Grade 2 (Combined Formula (I) regimens): 0
Hemoglobin (g/L) (increased): subjects with Grade 3 (Combined Formula (I) regimens): 0
Hemoglobin (g/L) (increased): subjects with Grade 4 (Combined Formula (I) regimens): 0
Lymphocytes (×10^9/L) (decreased): subjects with Grade 3 (Combined Formula (I) regimens): 0
Lymphocytes (×10^9/L) (decreased): subjects with Grade 4 (Combined Formula (I) regimens): 0
Lymphocytes (×10^9/L) (increased): subjects with Grade 1 (Combined Formula (I) regimens): 0
Lymphocytes (×10^9/L) (increased): subjects with Grade 3 (Combined Formula (I) regimens): 0
Lymphocytes (×10^9/L) (increased): subjects with Grade 4 (Combined Formula (I) regimens): 0
Neutrophils (×10^9/L) (decreased): subjects with Grade 3 (Combined Formula (I) regimens): 0
Neutrophils (×10^9/L) (decreased): subjects with Grade 4 (Combined Formula (I) regimens): 0
Platelets (×10^9/L) (decreased): subjects with Grade 2 (Combined Formula (I) regimens): 0
Platelets (×10^9/L) (decreased): subjects with Grade 3 (Combined Formula (I) regimens): 0
Platelets (×10^9/L) (decreased): subjects with Grade 4 (Combined Formula (I) regimens): 0
WBC (×10^9/L) (decreased): subjects with Grade 3 (Combined Formula (I) regimens): 0
WBC (×10^9/L) (decreased): subjects with Grade 4 (Combined Formula (I) regimens): 0
WBC (×10^9/L) (increased): subjects with Grade 1 (Combined Formula (I) regimens): 0
WBC (×10^9/L) (increased): subjects with Grade 2 (Combined Formula (I) regimens): 0
WBC (×10^9/L) (increased): subjects with Grade 3 (Combined Formula (I) regimens): 0
WBC (×10^9/L) (increased): subjects with Grade 4 (Combined Formula (I) regimens): 0
WBC (×10^9/L) (increased): subjects with postbaseline maximum toxicity grade >0 (Combined Formula (I) regimens): 0
Alanine Aminotransferase (increased): Subjects with Grade 4 (Combined): 0
Albumin (decreased): Subjects with Grade 1 (Combined): 0
Albumin (decreased): Subjects with Grade 2 (Combined): 0
Albumin (decreased): Subjects with Grade 3 (Combined): 0
Albumin (decreased): Subjects with Grade 4 (Combined): 0
Albumin (decreased): Subjects with postbaseline maximum toxicity grade >0 (Combined): 0
Alkaline Phosphatase (increased): Subjects with Grade 2 (Combined): 0
Alkaline Phosphatase (increased): Subjects with Grade 3 (Combined): 0
Alkaline Phosphatase (increased): Subjects with Grade 4 (Combined): 0
Aspartate Aminotransferase (increased): Subjects with Grade 4 (Combined): 0
Calcium corrected (decreased): Subjects with Grade 3 (Combined): 0
Calcium corrected (decreased): Subjects with Grade 4 (Combined): 0
Calcium corrected (increased): Subjects with Grade 2 (Combined): 0
Calcium corrected (increased): Subjects with Grade 3 (Combined): 0
Calcium corrected (increased): Subjects with Grade 4 (Combined): 0
Cholesterol (increased): Subjects with Grade 3 (Combined): 0
Cholesterol (increased): Subjects with Grade 4 (Combined): 0
Creatinine (increased): Subjects with Grade 3 (Combined): 0
Creatinine (increased): Subjects with Grade 4 (Combined): 0
Gamma Glutamyl Transferase (increased): Subjects with Grade 3 (Combined): 0
Gamma Glutamyl Transferase (increased): Subjects with Grade 4 (Combined): 0
Glucose (decreased): Subjects with Grade 3 (Combined): 0
Glucose (decreased): Subjects with Grade 4 (Combined): 0
Magnesium (decreased): Subjects with Grade 2 (Combined): 0
Magnesium (decreased): Subjects with Grade 3 (Combined): 0
Magnesium (decreased): Subjects with Grade 4 (Combined): 0
Magnesium (increased): Subjects with Grade 2 (Combined): 0
Magnesium (increased): Subjects with Grade 3 (Combined): 0
Magnesium (increased): Subjects with Grade 4 (Combined): 0
Potassium (decreased): Subjects with Grade 1 (Combined): 0
Potassium (decreased): Subjects with Grade 3 (Combined): 0
Potassium (decreased): Subjects with Grade 4 (Combined): 0
Potassium (increased): Subjects with Grade 4 (Combined): 0
Sodium (decreased): Subjects with Grade 2 (Combined): 0
Sodium (decreased): Subjects with Grade 3 (Combined): 0
Sodium (decreased): Subjects with Grade 4 (Combined): 0
Sodium (increased): Subjects with Grade 2 (Combined): 0
Sodium (increased): Subjects with Grade 3 (Combined): 0
Sodium (increased): Subjects with Grade 4 (Combined): 0
Total Bilirubin (increased): Subjects with Grade 3 (Combined): 0
Total Bilirubin (increased): Subjects with Grade 4 (Combined): 0
Hemoglobin (g/L) (decreased): subjects with Grade 2 [1]: 0
Hemoglobin (g/L) (decreased): subjects with Grade 3 [1]: 0
Hemoglobin (g/L) (decreased): subjects with Grade 4 [1]: 0
Hemoglobin (g/L) (increased): subjects with Grade 2 [1]: 0
Hemoglobin (g/L) (increased): subjects with Grade 3 [1]: 0
Hemoglobin (g/L) (increased): subjects with Grade 4 [1]: 0
Lymphocytes (×10^9/L) (decreased): subjects with Grade 1 [1]: 0
Lymphocytes (×10^9/L) (decreased): subjects with Grade 3 [1]: 0
Lymphocytes (×10^9/L) (decreased): subjects with Grade 4 [1]: 0
Lymphocytes (×10^9/L) (increased): subjects with Grade 1 [1]: 0
Lymphocytes (×10^9/L) (increased): subjects with Grade 2 [1]: 0
Lymphocytes (×10^9/L) (increased): subjects with Grade 3 [1]: 0
Lymphocytes (×10^9/L) (increased): subjects with Grade 4 [1]: 0
Lymphocytes (×10^9/L) (increased): subjects with postbaseline maximum toxicity grade >0 [1]: 0
Platelets (×10^9/L) (decreased): subjects with Grade 2 [1]: 0
Platelets (×10^9/L) (decreased): subjects with Grade 3 [1]: 0
Platelets (×10^9/L) (decreased): subjects with Grade 4 [1]: 0
WBC (×10^9/L) (decreased): subjects with Grade 2 [1]: 0
WBC (×10^9/L) (decreased): subjects with Grade 3 [1]: 0
WBC (×10^9/L) (decreased): subjects with Grade 4 [1]: 0
WBC (×10^9/L) (increased): subjects with Grade 1 [1]: 0
WBC (×10^9/L) (increased): subjects with Grade 2 [1]: 0
WBC (×10^9/L) (increased): subjects with Grade 3 [1]: 0
WBC (×10^9/L) (increased): subjects with Grade 4 [1]: 0
WBC (×10^9/L) (increased): subjects with postbaseline maximum toxicity grade >0 [1]: 0
Alanine Aminotransferase (increased): Subjects with Grade 1 (Placebo → 100 mg QD): 10
Alanine Aminotransferase (increased): Subjects with Grade 3 (Placebo → 100 mg QD): 0
Alanine Aminotransferase (increased): Subjects with Grade 4 (Placebo → 100 mg QD): 0
Albumin (decreased): Subjects with Grade 1 (Placebo → 100 mg QD): 0
Albumin (decreased): Subjects with Grade 2 (Placebo → 100 mg QD): 0
Albumin (decreased): Subjects with Grade 3 (Placebo → 100 mg QD): 0
Albumin (decreased): Subjects with Grade 4 (Placebo → 100 mg QD): 0
Albumin (decreased): Subjects with postbaseline maximum toxicity grade >0 (Placebo → 100 mg QD): 0
Alkaline Phosphatase (increased): Subjects with Grade 2 (Placebo → 100 mg QD): 0
Alkaline Phosphatase (increased): Subjects with Grade 3 (Placebo → 100 mg QD): 0
Alkaline Phosphatase (increased): Subjects with Grade 4 (Placebo → 100 mg QD): 0
Aspartate Aminotransferase (increased): Subjects with Grade 4 (Placebo → 100 mg QD): 0
Aspartate Aminotransferase (increased): Subjects with postbaseline maximum toxicity grade >0 (Placebo → 100 mg QD): 9
Calcium corrected (decreased): Subjects with Grade 3 (Placebo → 100 mg QD): 0
Calcium corrected (decreased): Subjects with Grade 4 (Placebo → 100 mg QD): 0
Calcium corrected (increased): Subjects with Grade 1 (Placebo → 100 mg QD): 0
Calcium corrected (increased): Subjects with Grade 2 (Placebo → 100 mg QD): 0
Calcium corrected (increased): Subjects with Grade 3 (Placebo → 100 mg QD): 0
Calcium corrected (increased): Subjects with Grade 4 (Placebo → 100 mg QD): 0
Calcium corrected (increased): Subjects with postbaseline maximum toxicity grade >0 (Placebo → 100 mg QD): 0
Cholesterol (increased): Subjects with Grade 1 (Placebo → 100 mg QD): 0
Cholesterol (increased): Subjects with Grade 2 (Placebo → 100 mg QD): 0
Cholesterol (increased): Subjects with Grade 3 (Placebo → 100 mg QD): 0
Cholesterol (increased): Subjects with Grade 4 (Placebo → 100 mg QD): 0
Cholesterol (increased): Subjects with postbaseline maximum toxicity grade >0 (Placebo → 100 mg QD): 0
Creatine Kinase (increased): Subjects with Grade 2 (Placebo → 100 mg QD): 0
Creatine Kinase (increased): Subjects with Grade 4 (Placebo → 100 mg QD): 0
Creatinine (increased): Subjects with Grade 2 (Placebo → 100 mg QD): 0
Creatinine (increased): Subjects with Grade 3 (Placebo → 100 mg QD): 0
Creatinine (increased): Subjects with Grade 4 (Placebo → 100 mg QD): 0
Gamma Glutamyl Transferase (increased): Subjects with Grade 3 (Placebo → 100 mg QD): 0
Gamma Glutamyl Transferase (increased): Subjects with Grade 4 (Placebo → 100 mg QD): 0
Glucose (decreased): Subjects with Grade 3 (Placebo → 100 mg QD): 0
Glucose (decreased): Subjects with Grade 4 (Placebo → 100 mg QD): 0
Magnesium (decreased): Subjects with Grade 2 (Placebo → 100 mg QD): 0
Magnesium (decreased): Subjects with Grade 3 (Placebo → 100 mg QD): 0
Magnesium (decreased): Subjects with Grade 4 (Placebo → 100 mg QD): 0
Magnesium (increased): Subjects with Grade 2 (Placebo → 100 mg QD): 0
Magnesium (increased): Subjects with Grade 3 (Placebo → 100 mg QD): 0
Magnesium (increased): Subjects with Grade 4 (Placebo → 100 mg QD): 0
Potassium (decreased): Subjects with Grade 1 (Placebo → 100 mg QD): 0
Potassium (decreased): Subjects with Grade 3 (Placebo → 100 mg QD): 0
Potassium (decreased): Subjects with Grade 4 (Placebo → 100 mg QD): 0
Potassium (increased): Subjects with Grade 3 (Placebo → 100 mg QD): 0
Potassium (increased): Subjects with Grade 4 (Placebo → 100 mg QD): 0
Sodium (decreased): Subjects with Grade 1 (Placebo → 100 mg QD): 0
Sodium (decreased): Subjects with Grade 2 (Placebo → 100 mg QD): 0
Sodium (decreased): Subjects with Grade 3 (Placebo → 100 mg QD): 0
Sodium (decreased): Subjects with Grade 4 (Placebo → 100 mg QD): 0
Sodium (decreased): Subjects with postbaseline maximum toxicity grade >0 (Placebo → 100 mg QD): 0
Sodium (increased): Subjects with Grade 1 (Placebo → 100 mg QD): 0
Sodium (increased): Subjects with Grade 2 (Placebo → 100 mg QD): 0
Sodium (increased): Subjects with Grade 3 (Placebo → 100 mg QD): 0
Sodium (increased): Subjects with Grade 4 (Placebo → 100 mg QD): 0
Sodium (increased): Subjects with postbaseline maximum toxicity grade >0 (Placebo → 100 mg QD): 0
Total Bilirubin (increased): Subjects with Grade 2 (Placebo → 100 mg QD): 0
Total Bilirubin (increased): Subjects with Grade 3 (Placebo → 100 mg QD): 0
Total Bilirubin (increased): Subjects with Grade 4 (Placebo → 100 mg QD): 0
Triglycerides (increased): Subjects with Grade 3 (Placebo → 100 mg QD): 0
Triglycerides (increased): Subjects with Grade 4 (Placebo → 100 mg QD): 0
